IC50 data for eight compounds are collected here from ChEMBL document CHEMBL1153257, “Diphenylpyrazolidinone and benzodiazepine cholecystokinin antagonists: A case of convergent evolution in medicinal chemistry” (Bioorg Med Chem Lett, 1993).

The structures appear in SMILES notation.

Experiment [1] deals with T1, Gastrin/cholecystokinin type B receptor (Mus musculus, UniProt P56481).
T1 sequence (P56481 whole entry): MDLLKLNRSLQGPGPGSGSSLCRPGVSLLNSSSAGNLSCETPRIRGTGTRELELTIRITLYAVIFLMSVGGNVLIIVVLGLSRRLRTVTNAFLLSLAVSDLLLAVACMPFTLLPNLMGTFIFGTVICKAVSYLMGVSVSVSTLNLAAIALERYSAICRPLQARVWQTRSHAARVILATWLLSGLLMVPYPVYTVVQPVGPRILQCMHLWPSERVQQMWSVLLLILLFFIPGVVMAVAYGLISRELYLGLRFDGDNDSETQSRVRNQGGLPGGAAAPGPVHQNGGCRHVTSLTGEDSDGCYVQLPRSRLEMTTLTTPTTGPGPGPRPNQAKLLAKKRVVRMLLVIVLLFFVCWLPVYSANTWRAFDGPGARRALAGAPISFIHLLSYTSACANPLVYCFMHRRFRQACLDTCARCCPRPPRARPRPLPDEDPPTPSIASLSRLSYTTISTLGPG
The experiment can be described thus: The compound was tested for its activity to inhibit the binding of [125I]CCK-8 to Cholecystokinin type B receptor in mouse brain at a pH of 6.5. It is filed as tissue-based.

Experiment [2] has as its target T2, Cholecystokinin receptor type A (Rattus norvegicus, UniProt P30551).
T2 sequence (P30551 whole entry): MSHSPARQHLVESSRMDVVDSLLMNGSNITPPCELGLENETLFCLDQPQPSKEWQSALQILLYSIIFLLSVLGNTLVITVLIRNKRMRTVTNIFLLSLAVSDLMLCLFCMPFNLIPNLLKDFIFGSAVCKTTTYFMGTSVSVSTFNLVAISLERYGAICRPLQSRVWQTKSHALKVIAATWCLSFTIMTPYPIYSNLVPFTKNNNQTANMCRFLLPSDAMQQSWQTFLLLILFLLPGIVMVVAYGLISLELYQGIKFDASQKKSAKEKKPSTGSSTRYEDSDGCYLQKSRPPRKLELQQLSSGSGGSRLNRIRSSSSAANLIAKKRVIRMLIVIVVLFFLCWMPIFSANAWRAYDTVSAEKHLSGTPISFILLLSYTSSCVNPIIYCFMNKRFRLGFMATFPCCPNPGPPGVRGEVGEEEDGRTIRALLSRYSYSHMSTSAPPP
Nature of the experiment: The compound was tested for its activity to inhibit the binding of [3H]-L-364,718 to Cholecystokinin type A receptor in rat pancreas.

In experiment [3] the target is T2, Cholecystokinin receptor type A. The experiment can be described thus: The compound was tested for its activity to inhibit the binding of [125I]CCK-8 to Cholecystokinin type A receptor in rat pancreas.
The target of experiment [4] is T1, Gastrin/cholecystokinin type B receptor. Nature of the experiment: The compound was tested for its activity to inhibit the binding of [125I]CCK-8 to Cholecystokinin type B receptor in mouse brain at a pH of 7.4. It is filed as tissue-based.

As for `O=C1NN(C(=O)Nc2ccc(Br)cc2)[C@H](c2ccccc2)[C@H]1c1ccccc1`, the IC50 in experiment [1] was determined as 370 nM; in experiment [2], 6400 nM.

As for `CN1C(=O)[C@@H](NC(=O)c2ccc(Cl)cc2)N=C(c2ccccc2)c2ccccc21`, in experiment [3], the 50% inhibitory concentration (IC50) came to 0.39 nM.

In the case of `O=C1NN(C(=S)Nc2ccc(Cl)c(C(F)(F)F)c2)[C@@H](c2ccccc2)[C@@H]1c1ccccc1`, the values for the IC50 in experiment [2] and in experiment [4] were 810 nM and 550 nM, respectively.

For `CN1C(=O)[C@H](NC(=O)c2ccc(Cl)cc2)N=C(c2ccccc2)c2ccccc21`, the IC50 in experiment [3] stood at 2.9 nM.

Consider `O=C1NN(C(=O)Nc2ccc(Br)cc2)[C@@H](c2ccccc2)[C@@H]1c1ccccc1`, for which the IC50 in experiment [1] was found to be 19 nM; in experiment [2], 20500 nM.

Take `O=C1NN(C(=O)Nc2ccc(Br)cc2)C(c2ccccc2)C1c1ccccc1` (centres undefined): the values for the IC50 in experiment [1] and in experiment [2] were 31 nM and 11600 nM, respectively.

Take `O=C1NN(C(=S)Nc2ccc(Cl)c(C(F)(F)F)c2)C(c2ccccc2)C1c1ccccc1` (centres undefined): the IC50 is 42 nM in experiment [2] and 880 nM in experiment [4].

`O=C1NN(C(=S)Nc2ccc(Cl)c(C(F)(F)F)c2)[C@H](c2ccccc2)[C@H]1c1ccccc1`: the IC50 in experiment [2] was 17 nM; in experiment [4], 1900 nM.
